This is an account of results in publication PMC9319634, “Antibacterial Peptide NP-6 Affects Staphylococcus aureus by Multiple Modes of Action” (International Journal of Molecular Sciences, 2022).

Peptide text beside a SMILES is read from it.

One data set concerns RAW 264.7 cells. As to the kind of experiment: CCK-8 cytotoxicity assay. As to conditions: CCK-8, 48 h incubation, absorbance 450 nm, mean, n = 3. The class given is cell-based. How it is done:
RAW 264.7 cells were purchased from the National Collection of Authenticated Cell Cultures (Shanghai, China). The cells were cultured in DMEM containing 10% FBS at 37 °C in a 5% CO2 incubator at constant temperature.
The Cell Counting Kit-8 (CCK-8) assay was conducted to measure the cytotoxicity of the peptides towards RAW 264.7 cells according to Deng et al.. The cells were incubated in Roswell Park Memorial Institute (RPMI)-1640 medium at 37 °C in a humidified atmosphere with 5% CO2. Then, they were added to a 96-well plate (3 × 10^3 cells/well) to adhere for 18 h. A total of 100 µL of the samples with different concentrations (256, 512, 1024, and 2048 µg/mL) diluted by H2O were added and incubated for another 48 h, after which the medium was disposed. A total of 100 µL of the CCK-8 test solution was added and incubated for 2 h at 37 °C. The absorbance values of the mixture at 450 nm were determined. The survival rate of cells was calculated according to the following formula:(2) Survival rate (%)=absorbancesample−absorbanceblank/absorbancecontrol−absorbanceblank×100
Background: Formazan colour is commonly taken as a measure of viable cells.

The test system of another data set is mouse red blood cells. Briefly: Hemolysis assay. Type of data set: cell-based. As to conditions: 512 µg/mL (1MIC); mouse red blood cells in PBS 0.01 M pH 7.4, 37 °C, 1 h; absorbance 595 nm; 1% Triton X-100 = 100%; mean ± SD, n = 3. As for the experimental part: The hemolytic activity of the peptide was evaluated according to Tang et al. with minor modifications. To prepare the red blood cell solution, 1.0 mL of fresh mouse red blood cells was centrifuged for 5 min at 1000× g, and the precipitates were resuspended in 10 mL of PBS (0.01 M, pH 7.4). A total of 50 µL of serial dilutions of peptides (2048, 1024, 512, 256, 128, 64, 32, 16, 8, and 4 µg/mL) were prepared in a 96-well plate by dissolving NP-6 and Nisin A in PBS (0.01 M, pH 7.4). Then, 50 µL of freshly prepared mouse red blood cell solution was added and incubated at 37 °C for 1 h. A total of 50 µL of PBS buffer only and 50 µL of Triton X-100 1% (w/v) were mixed with 50 µL of mouse red blood cell solution as negative and positive controls, respectively. After 1 h of incubation, all the samples were centrifuged at 1000× g for 5 min. The supernatant was collected, and the absorbance was at 595 nm with a UV–vis instrument at 25 °C. The percent hemolysis was calculated as the following equation:(1) %hemolysis=absorbancesample−absorbancenegative/absorbancepositive−absorbancenegative×100
Mouse red blood cells that were suspended in PBS and 1% Triton X-100 represented zero hemolysis and 100% hemolysis, respectively.

Data set [1] in a line: Serum stability (antimicrobial activity after incubation in fetal bovine serum, plate count). Type of data set: in vitro ADME. As to conditions: peptide 1.0 mg/mL in 50% fetal bovine serum, 37 °C, 0, 3 and 6 h; remaining antimicrobial activity by plate count (CFU); repeated three times. As for the experimental part:
The serum stability assay was conducted to evaluate the effect of serum on the antimicrobial activity of NP-6 using a method that was reported in a previous study. Peptide (1.0 mg/mL) was added to 50% fetal bovine serum and incubated at 37 °C for 0, 3, and 6 h, respectively. The cells that were incubated with PBS, NP-6, and serum were conducted as a blank and a control. The antimicrobial activity of NP-6 was measured using the plate count method. These assays were repeated three times independently. The inhibition rate of samples was calculated according to the following formula:(3) Inhibition rate (%)=Nblank−Nsample/Nblank×100 where Nblank is the colony forming units (CFU) of cells that were incubated with PBS and Nsample is the CFU of cells that were incubated with NP-6, NP-6+ serum, and serum, respectively. The inhibition rate of NP-6+ serum is expressed as the relative value to NP-6.

As to `CC[C@H](C)[C@H](NC(=O)CNC(=O)[C@@H](NC(=O)[C@H](CCCCN)NC(=O)[C@@H](NC(=O)[C@H](CCCCN)NC(=O)[C@H](CCCCN)NC(=O)[C@H](CC(=O)O)NC(=O)CNC(=O)[C@H](C)N)[C@@H](C)CC)[C@@H](C)CC)C(=O)N[C@@H](CC(N)=O)C(=O)NCC(=O)N[C@@H](Cc1ccccc1)C(=O)NCC(=O)N[C@@H](CCCNC(=N)N)C(=O)N[C@H](C(=O)NCC(=O)N[C@@H](CCCNC(=N)N)C(=O)N[C@@H](CC(C)C)C(=O)O)[C@@H](C)CC` [NP-6] (H-AGDKKIKIGINGFGRIGRL-OH), the “survival rate of RAW264.7 cells” value worked out at 72.56% in the data set with RAW 264.7 cells (1 × MIC (512 µg/mL)) and 20.26% with RAW 264.7 cells (2 × MIC (1024 µg/mL)). The hemolysis activity with mouse red blood cells is reported as 2.39 ± 0.13%. Further, the “inhibition rate of NP-6 + serum samples relative to NP-6” value in data set [1] is reported as “exceeded 80%”.
